US5817669A, “Compounds, processes for the preparation thereof and anti-tumor agents” (Dainippon Pharmaceutical Co., Ltd., priority 1994, dated 1998)
Converted amounts (≈) assume the structure as drawn. Like-named read-outs stand apart in the source and are kept apart here.

Columns and labels:
[1] = system: murine P388 lymphocytic leukemia cells; assay: In vitro anti-tumor activity against murine P388 lymphocytic leukemia cells (MTT, 72 h); assay type: cell-based; conditions: Mus musculus; murine P388 cells, 72 h, MTT; read-out: IC50 (50% proliferation inhibitory concentration)
Procedure: Test compounds were tested for anti-tumor activity according to MTT [3-(4,5-dimethylthiazol-2-yl)-2,5-diphenyltetrazolium bromide] method, using murine P388 lymphocytic leukemia cells. […] The culture medium was centrifuged (4° C., 2,000 rpm for 20 minutes), and thus, the supernatants were removed by suction. Then, 0.1 ml of dimethyl sulfoxide was put in each well to dissolve the formed formazan, and, subsequently, another 0.1 ml of dimethyl sulfoxide was added. The absorbance (OD) of each of the obtained solutions was measured by use of Multiskan Bichromatic (main wavelength 570 nm, sub-wavelength 690 nm). […] IC50 :μg/ml) were calculated by the least squares method.

[2] = system: KB human nasopharynx cancer; assay: In vitro anti-tumor activity against KB human nasopharynx cancer (MTT); assay type: cell-based; conditions: KB, 72 h, MTT, read-out: IC50
Procedure: (§1) A culture medium containing 500 to 2,000 human cancer cells was put in an amount of 0.1 ml in each well of 96-well plate, and the cells were cultured for 20 hours under a condition of 37° C. and 5% carbon dioxide gas in air. After the culturing, a solution of test compounds of predetermined concentration was added, and then, the cells were cultured for further 72 hours. After the culturing, an MTT (5 mg/ml) solution was added in an amount of 0.01 ml in the respective wells, and the cells were cultured for further 4 hours. The supernatants of the culture medium were removed by suction, and then, 0.1 ml of dimethyl sulfoxide was put in respective well to dissolve the formed formazan, and, moreover, 0.1 ml of dimethyl sulfoxide was added.

[3] = system: HMV2 human melanoma; assay: In vitro anti-tumor activity against HMV-2 human melanoma (MTT); assay type: cell-based; conditions: HMV-2, 72 h, MTT, read-out: IC50
Procedure: as §1

[4] = system: AZ521 human stomach cancer; assay: In vitro anti-tumor activity against AZ-521 human stomach cancer (MTT); assay type: cell-based; conditions: AZ-521, 72 h, MTT, read-out: IC50
Procedure: as §1

[5] = system: MKN45 human stomach cancer; assay: In vitro anti-tumor activity against MKN45 human stomach cancer (MTT); assay type: cell-based; conditions: MKN-45, MKN45, 72 h, MTT, read-out: IC50
Procedure: as §1

[6] = system: WiDr human colorectal cancer; assay: In vitro anti-tumor activity against WiDr human colorectal cancer (MTT); assay type: cell-based; conditions: 72 h, MTT, read-out: IC50
Procedure: as §1

[7] = system: C33A human cervix cancer; assay: In vitro anti-tumor activity against C-33A human cervix cancer (MTT); assay type: cell-based; conditions: C-33A, 72 h, MTT, read-out: IC50
Procedure: as §1

[8] = system: A427 human lung cancer; assay: In vitro anti-tumor activity against A-427 human lung cancer (MTT); assay type: cell-based; conditions: A-427, 72 h, MTT, read-out: IC50
Procedure: as §1

[9] = system: murine P388 lymphocytic leukemia cells; assay: Increases in life span of mice implanted with murine P388 lymphocytic leukemia cells; assay type: in vivo, SLC: BDF1 mice; conditions: Mus musculus, P388, ip, 720 h, ip
Procedure: 1×10^6 murine P388 lymphocytic leukemia cells were intraperitoneally implanted in each of SLC: BDF1 mice (8 to 10 weeks old, female, 7 animals per one group). A test compound (drug) was either dissolved in 0.1 N--NaOH or suspended in 0.4% carboxymethylcellulose solution, and the resultant solution or suspension was diluted with distilled water or 0.4% carboxymethylcellulose solution so as to give predetermined concentrations for administration. The obtained solution was intraperitoneally (ip) administered twice, namely on the day following the implantation (1st day) and the 5th day, each 0.2 ml. The life and death of the mice were observed over a period of 30 days, and the median survival time (hereinafter referred to as MST) was determined for each group, and, thus, the increase in life span (ILS; %) was calculated according to the following equation:
ILS (%)=[{(MST of the test group)/(MST of the control group)}-1]×100
Drug effect was judged in the following manner, according to the criterion of U.S. National Cancer Institute (NCI):
ILS=75% or higher: ++ (remarkably effective);
20 to 74%: + (effective);
19% or lower: - (ineffective)

[10] = system: colon 26 murine tumor cells; assay: Tumor growth inhibition effect on colon 26 murine tumor cells implanted mice; assay type: in vivo, SLC: CDF1 mice; conditions: Mus musculus, Colon 26, 504 h, ip, days 1-9, day 21 or 22, read-out: Tumor growth inhibition rate IR (%); for inhibition in vivo at 3.13 mg/kg: 3.13 mg/kg once a day; for inhibition in vivo at 1.56 mg/kg: 1.56 mg/kg once a day; for inhibition in vivo at 6.25 mg/kg: 6.25 mg/kg once a day
Procedure: A 2% brei of colon 26 murine tumor cells was intracutaneously implanted each 0.1 ml in the abdominal part of SLC: CDF1 female mice (7 to 9 weeks old, 7 animals per one group). […] The obtained solutions were intraperitoneally (ip) administered each 0.2 ml once a day, from the day (1st day) following the implantation to the 9th day. On the 21st or 22nd day after the implantation, tumor weight was estimated from tumor diameters, and thus, the tumor growth inhibition rate (IR %) of the drug administered group in comparison with the control group was calculated according to the following equation. IR (%)=[1-{(MTW in the treated group)/(MTW in the control group)}]×10 0 MTW: mean tumor weight

[11] = NCI criterion, read-out: Evaluation
[12] = days 1 and 5, in suspension, read-out: ILS (%) (in suspension)

Row | Compound | IC50 [1] [µg/mL] | IC50 [2] [µg/mL] | IC50 [3] [µg/mL] | IC50 [4] [µg/mL] | IC50 [5] [µg/mL] | IC50 [6] [µg/mL] | IC50 [7] [µg/mL] | IC50 [8] [µg/mL] | ILS at 3.13 mg/kg [9, 11] [%] | ILS at 12.5 mg/kg [9, 11] [%] | ILS at 3.13 mg/kg [9, 12] [%] | ILS at 12.5 mg/kg [9, 12] [%] | inhibition in vivo at 3.13 mg/kg [10] [%] | ILS at 50 mg/kg [9, 11] [%] | ILS at 50 mg/kg [9, 12] [%] | inhibition in vivo at 1.56 mg/kg [10] [%] | inhibition in vivo at 0.78 mg/kg ([10]; 0.78 mg/kg once a day) [%] | inhibition in vivo at 6.25 mg/kg [10] [%] | inhibition in vivo at 1.1 mg/kg ([10]; 1.10 mg/kg once a day) [%]
1 | CN[C@@H]1CN(c2ccc3c(=O)c(C(=O)O)cn(-c4nccs4)c3n2)C[C@@H]1OC (relative stereo) [Compound 1-4] | 0.02 (≈ 0.0498 µM) | 0.147 (≈ 0.366 µM) | 0.197 (≈ 0.491 µM) | 0.0985 (≈ 0.245 µM) | 0.131 (≈ 0.326 µM) | 0.273 (≈ 0.68 µM) | 0.143 (≈ 0.356 µM) | 0.158 (≈ 0.394 µM) | 20 to 74 | > 75 | 25 | 100 | 61 |  |  |  |  |  | 
2 | C[C@@H]1CN(c2ccc3c(=O)c(C(=O)O)cn(-c4nccs4)c3n2)C[C@H]1N (relative stereo) [Compound 7] | 0.00955 (≈ 0.0257 µM) | 0.111 (≈ 0.299 µM) | 0.139 (≈ 0.374 µM) | 0.0719 (≈ 0.194 µM) | 0.112 (≈ 0.302 µM) | 0.314 (≈ 0.845 µM) | 0.105 (≈ 0.283 µM) | 0.0933 (≈ 0.251 µM) | > 75 | > 75 | 75 | 100 | 95 | > 75 | 188 | 61 |  |  | 
3 | CN[C@@H]1CN(c2ccc3c(=O)c(C=O)cn(-c4nccs4)c3n2)C[C@H]1OC.Cl (relative stereo) [Compound 11, 3-Formyl-1,4-dihydro-7-(trans-3-methoxy-4-methylamino-1-pyrrolidinyl)-4-oxo-1-(2-thiazolyl)-1,8-naphthyridine hydrochloride] | 0.0309 | 0.179 | 0.214 | 0.0307 | 0.144 | 0.264 | 0.161 | 0.0749 | > 75 | > 75 | 88 | 150 |  | > 75 | 225 | 58 | 50 |  | 
4 | C[C@@H]1CN(c2ccc3c(=O)c(C(=O)O)cn(-c4nccs4)c3n2)C[C@@]1(C)N (relative stereo) [Compound 12] | 0.0195 (≈ 0.0506 µM) | 0.125 (≈ 0.324 µM) | 0.265 (≈ 0.688 µM) | 0.101 (≈ 0.262 µM) | 0.164 (≈ 0.425 µM) | 0.295 (≈ 0.765 µM) | 0.131 (≈ 0.34 µM) | 0.146 (≈ 0.379 µM) |  | > 75 |  | 75 | 48 |  |  |  |  | 84 | 
5 | CCN[C@@H]1CN(c2ccc3c(=O)c(C(=O)O)cn(-c4nccs4)c3n2)C[C@H]1OC (relative stereo) [Compound 13] | 0.0252 (≈ 0.0607 µM) | 0.15 (≈ 0.361 µM) | 0.171 (≈ 0.412 µM) | 0.0717 (≈ 0.173 µM) | 0.139 (≈ 0.335 µM) | 0.268 (≈ 0.645 µM) | 0.138 (≈ 0.332 µM) | 0.15 (≈ 0.361 µM) | 20 to 74 | > 75 | 25 | 100 |  | > 75 | 213 | 41 |  |  | 
6 | CN[C@@H]1CN(c2cc(N)c3c(=O)c(C(=O)O)cn(-c4nccs4)c3n2)C[C@H]1OC (relative stereo) [Compound 15] | 0.0157 (≈ 0.0377 µM) | 0.0604 (≈ 0.145 µM) | 0.119 (≈ 0.286 µM) | 0.0288 (≈ 0.0692 µM) | 0.0964 (≈ 0.231 µM) | 0.259 (≈ 0.622 µM) | 0.0854 (≈ 0.205 µM) | 0.0696 (≈ 0.167 µM) | > 75 | > 75 | 88 | 200 | 68 | > 75 | 238 |  |  |  | 
7 | C[C@@H]1[C@@H](N)CCN1c1ccc2c(=O)c(C(=O)O)cn(-c3nccs3)c2n1 (relative stereo) [Compound 17] |  |  |  |  |  |  |  |  |  |  |  |  |  | > 75 | 150 |  |  |  | 
8 | CN[C@@H]1CN(c2ccc3c(=O)c(C(=O)O)cn(-c4nccs4)c3n2)C[C@H]1OC (single isomer, unassigned) [Compound 1-2, (+)-1,4-Dihydro-7-(trans-3-methoxy-4-methylamino-1-pyrrolidinyl)-4-oxo-1-(2-thiazolyl)-1,8-naphthyridine-3-carboxylic acid] | 0.00641 (≈ 0.016 µM) | 0.0873 (≈ 0.217 µM) | 0.114 (≈ 0.284 µM) | 0.0396 (≈ 0.0986 µM) | 0.155 (≈ 0.386 µM) | 0.357 (≈ 0.889 µM) | 0.0828 (≈ 0.206 µM) | 0.0925 (≈ 0.23 µM) |  |  |  |  |  |  |  |  |  |  | 69
9 | NC1CCN(c2ncc3c(=O)c(C(=O)O)cn(-c4nccs4)c3n2)C1 (centres unmarked) [Compound 14] | 0.0466 (≈ 0.13 µM) | 0.636 (≈ 1.77 µM) | 0.872 (≈ 2.43 µM) | 0.31 (≈ 0.865 µM) |  |  |  |  | 20 to 74 | > 75 | 63 | 113 | 55 | > 75 | > 275 |  |  | 68 | 
